# Data as given in patent publication EP2739618B1, “QUINAZOLINE COMPOUNDS AS SERINE/THREONINE KINASE INHIBITORS” (Array Biopharma, Inc., priority 2011, dated 2013).
# pIC50: −log10 of the molar value.
# Biological target: T1, human ERK-2 (Mitogen Activated Kinase 1) (Homo sapiens, UniProt P28482)
# T1 construct: N-terminal 6-His fusion protein in E. coli and corresponding to aa 8-360; 6-His (N); made in house; host or cells: E. coli
# Experiment: ERK-2 Enzymatic Assay
# Type: biochemical
# Conditions: TABLE I; 5nM ERK-2 enzyme, 25µM ATP, S/T17 peptide substrate; single assay or mean of multiple assays
# Protocol: Compounds were tested in an enzymatic assay using human ERK-2 (Mitogen Activated Kinase 1), recombinantly expressed as an N-terminal 6-His fusion protein in E. coli and corresponding to aa 8-360. The substrate used was the fluorescent Omnia peptide S/T17 (Invitrogen of Carlsbad, CA; Cat. KNZ1171C). Test compounds were diluted in DMSO in 3-fold serial dilutions at 100x final concentrations. […] The assay was run at ambient temperature in a white 384-well polypropylene plate (Nunc, Inc of Naperville, IL; Cat. 267462) collecting data every 50 seconds for approximately 30 minutes on an Envision plate reader (PerkinElmer, Inc. of Waltham, MA); Excitation 340 nm/Emission 495 nm. The data collected from each well was fit to a straight line and the resulting rates were used to calculate percent of control. Percent of control was plotted against compound concentration and IC50 values were determined using a four-parameter fit. Representative data is in TABLE I and TABLE II. The reported IC50 may be from a single assay or the mean of multiple assays.
# T1 sequence (P28482 8-360): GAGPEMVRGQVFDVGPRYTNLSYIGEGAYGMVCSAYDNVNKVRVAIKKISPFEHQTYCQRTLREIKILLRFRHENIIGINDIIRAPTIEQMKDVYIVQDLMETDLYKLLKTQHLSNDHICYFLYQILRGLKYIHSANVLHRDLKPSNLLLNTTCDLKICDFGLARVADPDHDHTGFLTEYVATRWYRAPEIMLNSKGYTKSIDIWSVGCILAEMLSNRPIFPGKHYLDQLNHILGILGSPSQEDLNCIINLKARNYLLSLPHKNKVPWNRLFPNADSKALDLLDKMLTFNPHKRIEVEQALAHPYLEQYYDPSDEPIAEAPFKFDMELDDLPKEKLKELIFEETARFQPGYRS
row,pIC50,Molecule
1,7.66,2-(tetrahydro-pyran-4-ylamino)-quinazoline-7-carboxylic acid [(R)-(4-cyano-3-fluoro-phenyl)-(1-methyl-1H-pyrazol-4-yl)-methyl]-amide [Compound I-45]
2,8.74,"O=C(N[C@H](c1ccc(C(F)(F)F)c(F)c1)[C@@H]1CCCN1)c1ccc2cnc(NC3CCOCC3)nc2c1 (stereo in doubt) [Compound I-7, 2-(tetrahydropyran-4-ylamino)-quinazoline-7-carboxylic acid [(S)-(3-fluoro-4-trifluoromethyl-phenyl)-(R)-pyrrolidin-2-yl-methyl]-amide]"
3,8.17,"O=C(N[C@H](c1ccc(F)c(Cl)c1)[C@@H]1CCNC1)c1ccc2cnc(NC3CCOCC3)nc2c1 (stereo in doubt) [Compound I-9, 2-(tetrahydropyran-4-ylamino)-quinazoline-7-carboxylic acid [(R)-(3-chloro-4-fluoro-phenyl)-(S)-pyrrolidin-3-yl-methyl]-amide]"
4,8.19,"O=C(N[C@@H](c1ccc(F)c(Cl)c1)[C@H]1CCNC1)c1ccc2cnc(NC3CCOCC3)nc2c1 (stereo in doubt) [Compound I-11, 2-(tetrahydropyran-4-ylamino)-quinazoline-7-carboxylic acid [(S)-(3-chloro-4-fluoro-phenyl)-(R)-pyrrolidin-3-yl-methyl]-amide]"
5,8.64,"O=C(N[C@H](c1ccc(Cl)c(F)c1)[C@@H]1CCCN1)c1ccc2cnc(NC3CCOCC3)nc2c1 (stereo in doubt) [Compound I-23, 2-(tetrahydropyran-4-ylamino)-quinazoline-7-carboxylic acid [(S)-(4-chloro-3-fluoro-phenyl)-(R)-pyrrolidin-2-yl-methyl]-amide]"
6,8.09,"COc1ccc([C@@H](NC(=O)c2ccc3cnc(NC4CCOCC4)nc3c2)[C@@H]2CCCN2)cc1F (stereo in doubt) [Compound I-24, 2-(tetrahydropyran-4-ylamino)-quinazoline-7-carboxylic acid [(S)-(3-fluoro-4-methoxy-phenyl)-(R)-pyrrolidin-2-yl-methyl]-amide]"
7,8.05,"COc1ccc([C@@H](NC(=O)c2cc(F)c3cnc(NC4CCOCC4)nc3c2)[C@@H]2CCCN2)cc1F (stereo in doubt) [Compound I-25, 5-fluoro-2-(tetrahydropyran-4-ylamino)-quinazoline-7-carboxylic acid [(S)-(3-fluoro-4-methoxy-phenyl)-(R)-pyrrolidin-2-yl-methyl]-amide]"
8,8.70,"COc1ccc([C@@H](NC(=O)c2ccc3cnc(N[C@H](C)C4CC4)nc3c2)[C@@H]2CCCN2)cc1F (stereo in doubt) [Compound I-26, 2-((R)-1-cyclopropyl-ethylamino)-quinazoline-7-carboxylic acid [(S)-(3-fluoro-4-methoxy-phenyl)-(R)-pyrrolidin-2-yl-methyl]-amide]"
9,8.96,"Cn1cc([C@H](NC(=O)c2ccc3cnc(NC4CCOCC4)nc3c2)c2ccc(C#N)c(Cl)c2)cn1 (stereo in doubt) [Compound I-48, (R)-N-((3-chloro-4-cyanophenyl)(1-methyl-1H-pyrazol-4-yl)methyl)-2-(tetrahydro-2H-pyran-4-ylamino)quinazoline-7-carboxamide]"
10,7.60,"Cn1cc([C@@H](NC(=O)c2ccc3cnc(NC4CCOCC4)nc3c2)c2ccc(C#N)c(Cl)c2)cn1 (stereo in doubt) [Compound I-50, (S)-N-((3-chloro-4-cyanophenyl)(1-methyl-1H-pyrazol-4-yl)methyl)-2-(tetrahydro-2H-pyran-4-ylamino)quinazoline-7-carboxamide]"
11,8.40,"COc1ccc([C@H](NC(=O)c2cc(F)c3cnc(N[C@@H]4CCOC4)nc3c2)c2cnn(C)c2)cc1F (stereo in doubt) [Compound I-62, 5-Fluoro-N-((S)-(3-fluoro-4-methoxyphenyl)(1-methyl-1H-pyrazol-4-yl)methyl)-2-((R)-tetrahydrofuran-3-ylamino)quinazoline-7-carboxamide]"
12,8.30,"Cn1ccc(C(NC(=O)c2ccc3cnc(NC4CCOCC4)nc3c2)c2ccc(Cl)c(F)c2)n1 (centres unmarked) [Compound I-4, 2-(tetrahydropyran-4-ylamino)-quinazoline-7-carboxylic acid [(4-chloro-3-fluoro-phenyl)-(1-methyl-1H-pyrazol-3-yl)-methyl]-amide]"
13,8.17,"O=C(N[C@@H](c1ccc(F)c(Cl)c1)[C@@H]1CCNC1)c1ccc2cnc(NC3CCOCC3)nc2c1 [Compound I-8, 2-(tetrahydropyran-4-ylamino)-quinazoline-7-carboxylic acid [(R)-(3-chloro-4-fluoro-phenyl)-(R)-pyrrolidin-3-yl-methyl]-amide]"
14,8.27,"O=C(N[C@H](c1ccc(F)c(Cl)c1)[C@H]1CCNC1)c1ccc2cnc(NC3CCOCC3)nc2c1 [Compound I-10, 2-(tetrahydropyran-4-ylamino)-quinazoline-7-carboxylic acid [(S)-(3-chloro-4-fluoro-phenyl)-(S)-pyrrolidin-3-yl-methyl]-amide]"
15,8.55,"CN1CCC[C@@H]1[C@@H](NC(=O)c1ccc2cnc(NC3CCOCC3)nc2c1)c1ccc(C(F)(F)F)c(F)c1 [Compound I-17, 2-(Tetrahydropyran-4-ylamino)-quinazoline-7-carboxylic acid [(S)-(3-fluoro-4-trifluoromethyl-phenyl)-((R)-1-methyl-pyrrolidin-2-yl)-methyl]-amide]"
16,7.89,"CCn1ccc([C@H](NC(=O)c2ccc3cnc(NC4CCOCC4)nc3c2)c2ccc(Cl)c(F)c2)n1 [Compound I-18, 2-(tetrahydropyran-4-ylamino)-quinazoline-7-carboxylic acid [(R)-(4-chloro-3-fluoro-phenyl)-(1-ethyl-1H-pyrazol-3-yl)-methyl]-amide]"
17,8.70,"Cn1ccc([C@@H](NC(=O)c2ccc3cnc(NC4CCOCC4)nc3c2)c2ccc(Cl)c(F)c2)n1 [Compound I-20, 2-(tetrahydropyran-4-ylamino)-quinazoline-7-carboxylic acid [(S)-(4-chloro-3-fluoro-phenyl)-(1-methyl-1H-pyrazol-3-yl)-methyl]-amide]"
18,7.16,"Cn1ccc([C@H](NC(=O)c2ccc3cnc(NC4CCOCC4)nc3c2)c2ccc(Cl)c(F)c2)n1 [Compound I-21, 2-(tetrahydropyran-4-ylamino)-quinazoline-7-carboxylic acid [(R)-(4-chloro-3-fluoro-phenyl)-(1-methyl-1H-pyrazol-3-yl)-methyl]-amide]"
19,7.80,"Cn1cc([C@@H](NC(=O)c2ccc3cnc(N[C@@H]4CCOC[C@@H]4F)nc3c2)c2ccc(Cl)c(F)c2)cn1 [Compound I-27, 2-((3R,4R)-3-fluoro-tetrahydropyran-4-ylamino)-quinazoline-7-carboxylic acid [(S)-(4-chloro-3-fluoro-phenyl)-(1-methyl-1H-pyrazol-4-yl)-methyl]-amide]"
20,8.42,"Cn1cc([C@@H](NC(=O)c2ccc3cnc(N[C@H]4CCOC[C@@H]4F)nc3c2)c2ccc(Cl)c(F)c2)cn1 [Compound I-29, 2-((3R,4S)-3-fluoro-tetrahydropyran-4-ylamino)-quinazoline-7-carboxylic acid [(S)-(4-chloro-3-fluoro-phenyl)-(1-methyl-1H-pyrazol-4-yl)-methyl]-amide]"
